In ChEMBL document CHEMBL1201862, “PubChem BioAssay data set” (2004):
Where “and” joins values, the source holds several entries; their conditions need not be identical. Equal entries are not always repeated.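 Each compound was tested at five concentrations against cells in 96-well plates for 48 hours. GI50 = concentration required for 50% inhibition of growth.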 Calls of active or inactive are those of the source. Rule as the data show it: active = GI50 up to about 1.1 µM and inactive = higher.

What was measured:
Test in all cases: growth of human tumour cells (NCI), 48 h
T47D = test system: T47D
RXF 393 = test system: RXF 393
ACHN = test system: ACHN
SK-MEL-2 = test system: SK-MEL-2
SF-539 = test system: SF-539
LOX IMVI = test system: LOX IMVI
U-251 = test system: U-251
DU-145 = test system: DU-145
CCRF-CEM = test system: CCRF-CEM
A549 = test system: A549
MCF7 = test system: MCF7
HOP-62 = test system: HOP-62
OVCAR-4 = test system: OVCAR-4
TK-10 = test system: TK-10
Hs-578T = test system: Hs-578T
PC-3 = test system: PC-3
UO-31 = test system: UO-31
A498 = test system: A498
HOP-92 = test system: HOP-92

Measured: GI50

COc1ccc2nc3cc(Cl)ccc3c(NCCCNCc3cc(OC)c(OC)c(OC)c3)c2c1
inactive: T47D 1.89 µM | RXF 393 1.46 µM | ACHN 1.62 µM | SK-MEL-2 1.91 µM | SF-539 1.87 µM | LOX IMVI 1.54 µM | U-251 1.76 µM | DU-145 1.7 µM | A549 1.83 µM | MCF7 1.75 µM | HOP-62 1.32 µM | OVCAR-4 1.78 µM | TK-10 1.73 µM | Hs-578T 2.95 µM | PC-3 1.4 µM | UO-31 1.65 µM
active: CCRF-CEM 0.865 µM

CCOC(=O)CC(c1ccccc1)C(C)(C(=O)OCC)C(=O)OCC (stereo not given)
inactive: T47D 78.2 µM | RXF 393 3.23 µM | ACHN > 100 µM | SK-MEL-2 > 100 µM | SF-539 > 100 µM | LOX IMVI > 100 µM | U-251 > 100 µM | DU-145 > 100 µM | CCRF-CEM > 100 µM | A549 > 100 µM | MCF7 > 100 µM | HOP-62 > 100 µM | OVCAR-4 > 100 µM | TK-10 > 100 µM | Hs-578T > 100 µM | PC-3 77.6 µM | UO-31 33.3 µM

CC1=C2CC(C)(C)CC(=O)C2(C)CCC1=O (stereo not given)
inactive: T47D > 100 µM | ACHN > 100 µM | SK-MEL-2 > 100 µM | SF-539 > 100 µM | LOX IMVI > 100 µM | U-251 > 100 µM | DU-145 > 100 µM | CCRF-CEM > 100 µM | A549 > 100 µM | MCF7 > 100 µM | HOP-62 > 100 µM | OVCAR-4 > 100 µM | TK-10 > 100 µM | Hs-578T > 100 µM | PC-3 > 100 µM | UO-31 > 100 µM

O=c1c(-c2ccccc2F)coc2cc(F)ccc12
inactive: T47D > 100 µM | RXF 393 > 100 µM | ACHN > 100 µM | SK-MEL-2 > 100 µM | SF-539 91.4 µM | LOX IMVI 34.8 µM | U-251 97.7 µM | DU-145 > 100 µM | A498 > 100 µM | HOP-92 > 100 µM | CCRF-CEM > 100 µM | A549 > 100 µM | HOP-62 > 100 µM | OVCAR-4 > 100 µM | TK-10 > 100 µM | Hs-578T > 100 µM | PC-3 > 100 µM | UO-31 > 100 µM

Fc1cccc(F)c1C1SCc2nc3cc(Cl)ccc3n21 (stereo not given)
inactive: T47D 31.2 µM | RXF 393 48.8 µM | ACHN 31.3 µM | SK-MEL-2 30.6 µM | SF-539 80.9 µM | LOX IMVI 18.5 µM | U-251 22 µM | DU-145 68.5 µM | HOP-92 36.6 µM | CCRF-CEM 25.6 µM | A549 31.3 µM | MCF7 15 µM | HOP-62 > 100 µM | OVCAR-4 35.9 µM | TK-10 > 100 µM | Hs-578T > 44.7 µM | PC-3 34.4 µM | UO-31 19.2 µM

C(=N\c1ccc2c(c1)Cc1ccccc1-2)/c1ccccn1
inactive: T47D 59.4 µM | RXF 393 > 100 µM | ACHN > 100 µM | SK-MEL-2 43.3 µM | LOX IMVI 57.1 µM | U-251 63.1 µM | DU-145 88.3 µM | A498 44.3 µM | HOP-92 > 100 µM | CCRF-CEM 23 µM | A549 > 100 µM | HOP-62 > 100 µM | OVCAR-4 > 100 µM | TK-10 42.7 µM | Hs-578T 92.3 µM | PC-3 38.7 µM | UO-31 > 100 µM

N#CC1Nc2ccccc2[C@@H](O)C1O (stereo not given in full)
inactive: T47D > 100 µM | RXF 393 > 100 µM | ACHN > 100 µM | SK-MEL-2 > 100 µM | SF-539 > 100 µM | LOX IMVI > 100 µM | U-251 > 100 µM | DU-145 > 100 µM | HOP-92 > 100 µM | CCRF-CEM > 100 µM | A549 > 100 µM | MCF7 > 100 µM | HOP-62 > 100 µM | OVCAR-4 > 100 µM | TK-10 > 100 µM | Hs-578T > 100 µM | PC-3 > 100 µM

COc1ccc(C2Oc3c(OC)cc(CCCO)cc3C2CO)cc1OC (stereo not given)
inactive: T47D 10.9 µM and 18.3 µM | RXF 393 > 100 µM | ACHN > 100 µM and 76.6 µM | SK-MEL-2 95.1 µM | SF-539 > 100 µM | U-251 > 100 µM | DU-145 > 100 µM | HOP-92 56.5 µM | A549 88.1 µM and 80 µM | MCF7 27.6 µM and 44.7 µM | HOP-62 > 100 µM | OVCAR-4 > 100 µM | TK-10 > 100 µM | Hs-578T > 100 µM | PC-3 > 100 µM
